# Reference: patent US20230035688A1, “METHOD FOR TREATING GASTRIC CANCER BY BLOCKING CCL28 CHEMOTACTIC PATHWAY” (SHANGHAI JIAO TONG UNIVERSITY, priority 2019, published 2023)
# Columns and labels:
# [1] = system: CCL28 promoter; assay: CCL28 promoter luciferase reporter gene activity with β-catenin overexpression; format: cell-based, human; conditions: FIG. 2D
# From the text: (§1) Wnt/β-catenin reporter plasmid M50 Super 8X TOPFlash (Addgene plasmid #12456) and mutant control M51 Super 8X FOPFlash (Addgene plasmid #12457) are gifts from Randall Moon. The promoter of the human CCL28 gene (2.8 kb, −2576/+205 relative to the transcriptional start site) was cloned into the firefly luciferase reporter gene construct pGL4. Mutations of potential TCF/LEF binding sites on the CCL28 promoter were introduced using the Hieff Mut™ Multisite Directed Mutagenesis Kit (Yeasen, Shanghai) to produce a mutant CCL28 promoter report construct (pGL4-CCL28.mut). The plasmids were transfected using a jetPRIME transfection reagent (Polybus Transfection). Transfection efficiency was standardized by co-transfection with a pRL-CMV reporter gene containing the Ranilla Luciferase gene. Firefly and Ranilla luciferase activities were measured using a Dual-Glo luciferase assay system (Promega).
# (§2) In this Example, the correlation between CCL28 and β-catenin signaling pathway structure is analyzed in combination with bioinformatics, and then the relationship between the two is verified in the cell model. […] After using β-catenin/TCF, the transcriptional activity of CCL28 promoter was detected after shRNA knockdown of TCF/LEF transcription factor family members or overexpression of TCF/LEF members.
# [2] = system: Wnt pathway reporter gene TOPflash; assay: Wnt pathway reporter gene TOPflash luciferase activity with β-catenin overexpression; format: cell-based, human; conditions: FIG. 2D
# From the text: as §1, §2
# [3] = system: CCL28 protein; assay: CCL28 protein expression in stomach of H. felis/MNU in situ gastric cancer mice (Western blotting, ELISA); format: in vivo, mouse; conditions: intraperitoneal injection; Western blotting (FIG. 3A) and ELISA (FIG. 3B)
# From the text: The proteins in gastric cancer cell line and mouse gastric tissue were lysed with RIPA lysate (Thermo Scientific) added with protease inhibitor (Roche), and the protein concentration was detected using BCA Protein Assay Reagent (Thermo Scientific). The detected proteins were as follows: β-catenin (Abcam), CCL28 (R & D Systems), active β-catenin (Merck), GAPDH (Abcam) and β-tubulin (Abcam).
# In order to establish gastric cancer mouse mode induced by Helicobacter felis (H. felis) and N-Methyl-N-nitrosourea (MNU), 8-week-old wild-type mice were fed by gavage with H. felis strain (ATCC 49179) three times a week, followed by given drinking water containing 240 ppm MNU every other week for a total of 12 weeks.
# [4] = system: colon tumor cell lines; conditions: cited from earlier work
compound,measurement,setting,value
Cc1cc(/C=C2\SC(=O)N(c3ccccc3)C2=O)c(C)n1-c1cccnc1 [iCRT14],up-regulation effect of β-catenin on CCL28 promoter activity,[1],reduces the up-regulation effect of β-catenin on CCL28 promoter activity
same,activity of Wnt pathway reporter gene TOPflash,[2],reduced the activity of both reporter genes
same,expression of CCL28 protein in the stomach,[3],significantly reduces the expression of CCL28 protein in the stomach
same,cell cycle arrest,[4],G0/G1 arrest
